This is an account of results in ChEMBL document CHEMBL5727979, “Thiazolidinedione derivative and use thereof” (2020).

By IC50 is commonly meant the point on the concentration scale where inhibition reaches its midpoint.

For the assay, the target named is T1, 15-hydroxyprostaglandin dehydrogenase [NAD(+)] (Homo sapiens, UniProt P15428).
T1 sequence (P15428 whole entry): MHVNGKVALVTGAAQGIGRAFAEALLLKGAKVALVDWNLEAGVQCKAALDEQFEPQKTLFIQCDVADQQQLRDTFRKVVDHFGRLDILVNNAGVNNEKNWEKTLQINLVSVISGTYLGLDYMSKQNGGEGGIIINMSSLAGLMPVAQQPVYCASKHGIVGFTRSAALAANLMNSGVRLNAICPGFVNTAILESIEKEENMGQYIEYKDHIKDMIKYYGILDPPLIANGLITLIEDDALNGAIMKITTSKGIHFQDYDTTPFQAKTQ
In words: Inhibitory Activity Assay: To confirm whether the compounds according to the present disclosure have an effect of inhibiting 15-PGDH, the NADH, which appears at the wavelength of 340 nm, of Compounds 1 to 105 purified in (1) nm was measured by using fluorescence spectra photometer. That is, the cells were treated with a solution including 50 mM Tris-HCl (pH 7.5), 0.1 mM DTT, 0.25 mM (NAD+), 10 μg of purified 15-PGDH enzyme, 21 μM PGE2. and various concentrations (0.0001 μM to 64 μM) of the derivative compound according to the present disclosure. In this case, the total volume of the solution was 2 ml. Then, the absorbance of the reaction mixture was recorded at the wavelength of 340 nm. To measure the activity of the derivative compounds according to the present disclosure, which is an inhibitor of 15-PGDH, the average value of NADH absorbance at 340 nm at various concentrations was obtained from a standard curve. The results of the 15-PGDH inhibitory activity of the derivative compounds according to the present disclosure are shown in Tables 1 and 2 below.
Turning to `O=C1NC(=O)/C(=C/c2ccc(OC(=O)C3CCC3)cc2)S1`, the IC50 was found to be 431 nM.

As for `O=C(CCC1CCCC1)Oc1ccc(/C=C2\SC(=O)NC2=O)c(Cl)c1`, the IC50 is 50.8 nM.

In the case of `O=C1NC(=O)/C(=C/c2ccc(OC(=O)c3ccccc3)cc2)S1`, the IC50 was determined as 124 nM.
